{"source": "patent US11191866B2", "about": "“Dressing enabling the controlled and prolonged release of metformin” (Urgo Recherche Innovation et Developpement, priority 2016, dated 2021)", "origin": "cited, not measured here", "settings": "rats; radioactively marked, deposited on a wound in a gel"}
{"smiles": "CN(C)C(=N)N=C(N)N", "note": "[metformin]", "values": [{"measurement": "time remaining at the local level on the wound", "value": "remained for a very short period of time at the local level"}]}
